{
  "source": "patent US11339160B2",
  "about": "“Imidazole and triazole containing bicyclic compounds as JAK inhibitors” (THERAVANCE BIOPHARMA R&D IP, LLC, priority 2019, dated 2022)",
  "key": {"Caco-2 cell monolayers": {"tested_on": "Caco-2 cell monolayers", "assay": "Caco-2 permeation assay", "conditions": "5 μM, A to B, + Verapamil 25 μM; unit taken from the thresholds in the same block", "experimental": "The Caco-2 permeation assay was performed to model the ability of test compounds to pass through the intestine and get into the blood stream after oral administration. The rate at which test compounds in solution permeate a cell monolayer designed to mimic the tight junction of human small intestinal monolayers was determined.\nCacoReady 24-well transwell plates were obtained from ADMEcell (Alameda, Calif.). The compounds were evaluated at a concentration of 5 μM from 10 mM DMSO stock solutions in duplicate (n=2). The passive permeability of the compounds tested was evaluated using Caco-2 cell monolayers along with Verapamil (25 μM) to inhibit P-gp transport proteins in the apical to basolateral (A-B) direction. The experiment was conducted in a 37° C., 5% CO2 incubator. Caco-2 culture media consisted of standard filtered DMEM, FCS 10%, L-Glutamine 1% and PenStrep 1%. Basal assay plate was prepared by adding 750 μL of transport buffer to A-B wells. A CacoReady™ plate was prepared by removing the Caco-2 media from the apical wells and replacing with fresh transport media (200 μL repeated for a total of 3 washes). Blank media (200 μL) was then replaced with diluted compound for A-B wells. […] The permeation coefficient (Kp, mean A to B+Verapamil Papparent) in cm/sec was calculated as dQ (flux)/(dt×Area×concentration). […]"}, "[1]": {"assay": "Colon and plasma mouse pharmacokinetics", "type": "in vivo", "conditions": "male Balb/c mice, 10 mg/kg PO, 0.5, 2 and 6 h", "protocol": "Assay 6: Colon and Plasma Mouse Pharmacokinetics\n6 male Balb/c mice were administered 10 mg/kg of compound in 1% HPMC+0.1% Tween-80 by PO administration. At 0.5, 2 and 6 hours after dose administration, animals were anesthetized, and terminal blood samples were collected by cardiac puncture, followed by collection of colon contents and colon tissue.\nBlood samples were collected into K2EDTA and stored on wet ice until processed to plasma by centrifugation (12,000 rpm at 4° C.). Plasma samples were transferred to cluster tubes and placed on dry ice prior to freezer storage. The colon contents from each animal were collected at each terminal blood collection time point. The colon tissues were flushed with saline and patted dry. The colon and colon content tissues were homogenized using sterile water containing 0.1% formic acid 9:1 (water:tissue, v/w). […] All samples were analyzed using LC/MS/MS against analytical standards.\nThe composite pharmacokinetic parameters of the compounds were determined by non-compartmental analysis using Phoenix WinNonlin Version 6 (Certara, St. Louis, Mo.) and using mean values from 2 animals/time point. For plasma concentrations below the quantification limit (BQL), the lowest concentration measurable or the BLOQ (below limit of quantification) was used.\nA colon to plasma ratio was determined as the ratio of the colon AUC to the plasma AUC."}, "JAK1": {"target": "JAK1 (Homo sapiens (Human), UniProt P23458)", "sequence (P23458 whole entry)": "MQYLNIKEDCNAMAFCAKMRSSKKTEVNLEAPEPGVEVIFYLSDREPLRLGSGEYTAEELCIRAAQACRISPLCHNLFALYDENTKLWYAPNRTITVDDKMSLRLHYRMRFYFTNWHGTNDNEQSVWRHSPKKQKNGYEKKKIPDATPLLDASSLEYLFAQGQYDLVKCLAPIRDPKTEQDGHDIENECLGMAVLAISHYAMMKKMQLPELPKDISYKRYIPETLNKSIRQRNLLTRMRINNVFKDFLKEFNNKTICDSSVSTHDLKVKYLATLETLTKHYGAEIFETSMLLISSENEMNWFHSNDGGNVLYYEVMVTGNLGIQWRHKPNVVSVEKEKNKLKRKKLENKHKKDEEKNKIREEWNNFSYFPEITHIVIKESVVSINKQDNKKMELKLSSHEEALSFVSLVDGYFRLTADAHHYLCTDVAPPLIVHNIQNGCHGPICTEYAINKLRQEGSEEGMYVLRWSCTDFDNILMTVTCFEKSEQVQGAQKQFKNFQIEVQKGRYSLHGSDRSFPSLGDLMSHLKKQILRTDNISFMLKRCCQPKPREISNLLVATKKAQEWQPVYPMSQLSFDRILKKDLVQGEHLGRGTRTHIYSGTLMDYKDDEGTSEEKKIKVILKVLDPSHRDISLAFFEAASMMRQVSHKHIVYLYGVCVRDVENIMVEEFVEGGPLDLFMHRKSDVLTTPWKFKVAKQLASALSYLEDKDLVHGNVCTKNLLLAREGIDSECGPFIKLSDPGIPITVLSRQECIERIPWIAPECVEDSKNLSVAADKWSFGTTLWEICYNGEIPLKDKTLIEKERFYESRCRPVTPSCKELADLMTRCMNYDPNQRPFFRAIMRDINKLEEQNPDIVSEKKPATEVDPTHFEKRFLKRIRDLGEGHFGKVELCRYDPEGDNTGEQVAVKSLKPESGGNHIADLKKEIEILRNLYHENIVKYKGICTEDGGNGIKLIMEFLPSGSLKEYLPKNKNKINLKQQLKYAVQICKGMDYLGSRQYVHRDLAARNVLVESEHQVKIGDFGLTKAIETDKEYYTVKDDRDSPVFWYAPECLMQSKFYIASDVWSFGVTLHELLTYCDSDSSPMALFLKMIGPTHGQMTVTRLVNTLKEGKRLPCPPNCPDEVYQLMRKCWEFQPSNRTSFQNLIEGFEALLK", "assay": "Biochemical JAK1 kinase assay (LanthaScreen)", "conditions": "1 h pre-incubation, ATP at Km 25 μM; pKi from pIC50 by Cheng-Prusoff", "protocol": "(§1) Assay 1: Biochemical JAK and Tyk2 Kinase Assays\n(§2) A panel of four LanthaScreen JAK biochemical assays (JAK1, 2, 3 and Tyk2) were carried in a common kinase reaction buffer (50 mM HEPES, pH 7.5, 0.01% Brij-35, 10 mM MgCl2, and 1 mM EGTA). Recombinant GST-tagged JAK enzymes and a GFP-tagged STAT1 peptide substrate were obtained from Life Technologies.\nSerially or discretely diluted compounds were pre-incubated with each of the four JAK enzymes and the substrate in white 384-well microplates (Corning) at ambient temperature for 1 h. ATP was subsequently added to initiate the kinase reactions in 10 μL total volume, with 1% DMSO. […] The plates were allowed to incubate at ambient temperature for 1 h before being read on the EnVision reader (Perkin Elmer). Emission ratio signals (520 nm/495 nm) were recorded and utilized to calculate the percent inhibition values based on DMSO and background controls.\n(§3) For dose-response analysis, percent inhibition data were plotted vs. compound concentrations, and IC50 values were determined from a 4-parameter robust fit model with the Prism software (GraphPad Software). Results were expressed as pIC50 (negative logarithm of IC50) and subsequently converted to pKi (negative logarithm of dissociation constant, Ki) using the Cheng-Prusoff equation."}, "JAK3": {"target": "JAK3 (Homo sapiens (Human), UniProt P52333)", "sequence (P52333 whole entry)": "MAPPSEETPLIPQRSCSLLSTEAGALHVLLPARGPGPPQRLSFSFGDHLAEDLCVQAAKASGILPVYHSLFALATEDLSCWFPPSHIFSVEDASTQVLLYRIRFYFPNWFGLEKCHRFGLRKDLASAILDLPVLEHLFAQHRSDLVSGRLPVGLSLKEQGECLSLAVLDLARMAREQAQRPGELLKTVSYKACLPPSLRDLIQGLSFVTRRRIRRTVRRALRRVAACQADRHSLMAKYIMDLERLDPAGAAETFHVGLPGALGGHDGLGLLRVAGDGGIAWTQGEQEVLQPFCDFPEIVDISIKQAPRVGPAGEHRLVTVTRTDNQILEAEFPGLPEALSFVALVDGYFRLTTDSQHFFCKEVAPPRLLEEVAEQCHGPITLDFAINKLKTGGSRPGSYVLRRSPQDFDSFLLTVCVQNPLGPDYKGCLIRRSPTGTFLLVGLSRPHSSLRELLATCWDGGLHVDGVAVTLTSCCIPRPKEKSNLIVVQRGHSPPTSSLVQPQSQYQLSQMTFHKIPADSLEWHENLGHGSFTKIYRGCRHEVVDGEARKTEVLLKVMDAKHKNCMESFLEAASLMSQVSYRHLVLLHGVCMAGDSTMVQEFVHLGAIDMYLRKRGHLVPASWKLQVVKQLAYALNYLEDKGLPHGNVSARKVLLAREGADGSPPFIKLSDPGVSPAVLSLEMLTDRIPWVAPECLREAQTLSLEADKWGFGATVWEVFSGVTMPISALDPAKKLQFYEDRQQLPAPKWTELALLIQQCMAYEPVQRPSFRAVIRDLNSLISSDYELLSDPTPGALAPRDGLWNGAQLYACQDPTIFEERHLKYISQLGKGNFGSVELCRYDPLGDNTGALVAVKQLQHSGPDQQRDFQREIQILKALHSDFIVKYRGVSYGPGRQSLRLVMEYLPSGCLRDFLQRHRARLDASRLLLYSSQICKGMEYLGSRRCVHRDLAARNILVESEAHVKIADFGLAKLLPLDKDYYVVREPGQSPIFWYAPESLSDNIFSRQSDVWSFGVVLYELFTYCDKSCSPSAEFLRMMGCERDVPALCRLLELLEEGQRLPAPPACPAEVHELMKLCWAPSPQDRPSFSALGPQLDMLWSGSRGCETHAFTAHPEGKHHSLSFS", "assay": "Biochemical JAK3 kinase assay (LanthaScreen)", "conditions": "for JAK3 (pKi)-JAK1 (pKi): selectivity, difference of pKi values", "protocol": "as §1, §2\nSerially or discretely diluted compounds were pre-incubated with each of the four JAK enzymes and the substrate in white 384-well microplates (Corning) at ambient temperature for 1 h. ATP was subsequently added to initiate the kinase reactions in 10 μL total volume, with 1% DMSO. […] Kinase reactions were allowed to proceed for 1 hour at ambient temperature before a 10 μL preparation of EDTA (10 mM final concentration) and Tb-anti-pSTAT1 (pTyr701) antibody (Life Technologies, 2 nM final concentration) in TR-FRET dilution buffer (Life Technologies) was added. The plates were allowed to incubate at ambient temperature for 1 h before being read on the EnVision reader (Perkin Elmer). Emission ratio signals (520 nm/495 nm) were recorded and utilized to calculate the percent inhibition values based on DMSO and background controls.\nas §3"}, "[2]": {"tested_on": "IL-2 stimulated STAT5 phosphorylation in CD4+ T cells isolated from murine splenocytes", "assay": "Inhibition of IL-2 stimulated pSTAT5 in CD4+ T cells isolated from murine splenocytes", "type": "cell-based", "conditions": "Mus musculus, IL-2 7 ng/ml, read-out: pIC50, inhibition of IL-2 stimulated pSTAT5 (converted)", "protocol": "Assay 3: Inhibition of IL-2 Stimulated pSTAT5 in CD4+ T Cells Isolated from Murine Splenocytes\nThe potency of test compounds for inhibition of interleukin-2 (IL-2) stimulated STAT5 phosphorylation was measured in the CD4+ T cells isolated from murine splenocytes using AlphaLisa. Because IL-2 signals through JAK3, this assay provides a measure of JAK3 cellular potency in mouse.\nPhosphorylated STAT5 was measured via the AlphaLISA SureFire Ultra pSTAT5 (Tyr694/699) kit (PerkinElmer).\nCD4+ T cells were isolated from murine splenocytes via negative selection on a magnetic column (Miltnyi Biotec) and re-suspended in assay media (phenol red-free DMEM (Life Technologies) supplemented with 10% FBS (ATCC)). Cells were seeded at 50,000 cells/well in assay media (2 μL/well). Compounds were serially diluted in DMSO and diluted to 2× final concentration in assay media. Compound was added (4 μl/well) and the cells incubated at 37° C., 5% CO2 for 1 hour, followed by the addition of IL-2 (R&D Systems; final concentration 7 ng/ml) in pre-warmed assay media (2 μL) for 30 minutes. After cytokine stimulation, cells were lysed with 2 μl of 5× AlphaLisa Lysis Buffer (PerkinElmer). The lysate was shaken at 900 rpm for 10 minutes at room temperature (RT). Phosphorylated STAT5 was measured via the pSTAT5 AlphaLisa kit (PerkinElmer). Freshly prepared acceptor bead mixture was dispensed onto lysate (5 ul) under green filtered <100 lux light. Plates were shaken at 900 rpm for 2 mins, briefly spun down, and incubated for 2 hrs at RT in the dark. Donor beads were dispensed (5 μl) under green filtered <100 lux light. Plates were shaken at 900 rpm for 2 mins, briefly spun down, and incubated overnight at RT in the dark. Luminescence was measured with excitation at 689 nm and emission at 570 nm using an EnVision plate reader (PerkinElmer) under green filtered <100 lux light.\nTo determine the inhibitory potency of test compounds in response to IL-2, the average emission intensity of beads bound to pSTAT5 was measured in primary CD4+ T cells isolated from murine splenocytes. IC50 values were determined from analysis of the inhibition curves of signal intensity vs compound concentration. Data are expressed as pIC50 (negative decadic logarithm IC50) values (mean standard deviation)."}},
  "data": [
    {"smiles": "C=CC(=O)N1C[C@H](Nc2ncnc3[nH]ccc23)CC[C@@H]1C", "note": "[PF-06651600, 2-propen-1-one, 1-[(2S,5R)-2-methyl-5-(7H-pyrrolo[2,3-d]pyrimidin-4-ylamino)-1-piperidinyl]]", "values": [
      {"measurement": "Kp value", "setting": "Caco-2 cell monolayers", "value": 25, "unit": "×10⁻⁶ cm/s"},
      {"measurement": "colon to plasma ratio (colon AUC to plasma AUC)", "setting": "[1]", "value": 2.8}
    ]},
    {"smiles": "C=CC(=O)N1CCC(N(C)c2cc(-c3ccc(O)cc3)cn3cncc23)CC1", "note": "[Example 17]", "values": [
      {"measurement": "JAK 1 (pKi)", "setting": "JAK1", "value": "E (a pKi value of 7 or below (Ki of 100 nM or above))"},
      {"measurement": "Ki", "setting": "JAK3; 1 h pre-incubation, ATP at Km 1.6 μM, pKi from pIC50 by Cheng-Prusoff, read-out: JAK 3 (pKi) (converted)", "value": "0.001 to 0.01", "unit": "µM"},
      {"measurement": "JAK3 (pKi)-JAK1 (pKi)", "setting": "JAK3", "value": "B (a value of 2.3 to 3)"}
    ]},
    {"smiles": "C=CC(=O)N1CC(COc2cc(-c3cc(F)c(O)cc3CC)cn3cncc23)C1", "note": "[Example 13, 1-(3-(((6-(2-ethyl-5-fluoro-4-hydroxyphenyl)imidazo[1,5-a]pyridin-8-yl)oxy)methyl)azetidin-1-yl)prop-2-en-1-one]", "values": [
      {"measurement": "IC50", "setting": "[2]", "value": "< 1", "unit": "µM"},
      {"measurement": "JAK3 (pKi)-JAK1 (pKi)", "setting": "JAK3", "value": "A (a value of 3 or above)"}
    ]},
    {"smiles": "C=CC(=O)N1CC(COc2cc(-c3ccc(O)c(F)c3)cn3cncc23)C1", "note": "[Example 20]", "values": [
      {"measurement": "IC50", "setting": "[2]", "value": "< 1", "unit": "µM"},
      {"measurement": "JAK3 (pKi)-JAK1 (pKi)", "setting": "JAK3", "value": "A (a value of 3 or above)"}
    ]},
    {"smiles": "C=CC(=O)N1CC(COc2cc(-c3ccc(O)c(F)c3F)cn3cncc23)C1", "note": "[Example 8, 1-(3-(((6-(2,3-difluoro-4-hydroxyphenyl)imidazo[1,5-a]pyridin-8-yl)oxy)methyl)azetidin-1-yl)prop-2-en-1-one]", "values": [
      {"measurement": "IC50", "setting": "[2]", "value": "< 1", "unit": "µM"},
      {"measurement": "JAK3 (pKi)-JAK1 (pKi)", "setting": "JAK3", "value": "A (a value of 3 or above)"}
    ]},
    {"smiles": "C=CC(=O)N1CC(COc2cc(-c3ccc(O)c(C)c3)cn3cncc23)C1", "note": "[Example 34]", "values": [
      {"measurement": "IC50", "setting": "[2]", "value": "< 1", "unit": "µM"},
      {"measurement": "JAK3 (pKi)-JAK1 (pKi)", "setting": "JAK3", "value": "A (a value of 3 or above)"}
    ]},
    {"smiles": "C=CC(=O)N1CC(COc2cc(-c3cc(Cl)c(O)c(OC)c3)cn3cncc23)C1", "note": "[Example 9, 1-(3-(((6-(3-chloro-4-hydroxy-5-methoxyphenyl)imidazo[1,5-a]pyridin-8-yl)oxy)methyl)azetidin-1-yl)prop-2-en-1-one]", "values": [
      {"measurement": "IC50", "setting": "[2]", "value": "< 1", "unit": "µM"},
      {"measurement": "JAK3 (pKi)-JAK1 (pKi)", "setting": "JAK3", "value": "A (a value of 3 or above)"}
    ]},
    {"smiles": "C=CC(=O)N1CC(COc2cc(-c3c(F)cc(O)cc3F)cn3cncc23)C1", "note": "[Example 7, 1-(3-(((6-(2,6-difluoro-4-hydroxyphenyl)imidazo[1,5-a]pyridin-8-yl)oxy)methyl)azetidin-1-yl)prop-2-en-1-one]", "values": [
      {"measurement": "IC50", "setting": "[2]", "value": "< 1", "unit": "µM"},
      {"measurement": "JAK3 (pKi)-JAK1 (pKi)", "setting": "JAK3", "value": "A (a value of 3 or above)"}
    ]},
    {"smiles": "C=CC(=O)N1CC(COc2cc(-c3cc(F)c(O)c(Cl)c3)cn3cncc23)C1", "note": "[Example 31]", "values": [
      {"measurement": "IC50", "setting": "[2]", "value": "< 1", "unit": "µM"},
      {"measurement": "JAK3 (pKi)-JAK1 (pKi)", "setting": "JAK3", "value": "A (a value of 3 or above)"}
    ]},
    {"smiles": "C=CC(=O)N1CC[C@@H](Oc2cc(-c3ccc(O)cc3)cn3cncc23)C[C@H]1C", "note": "[Example 15, 1-((2R,4R)-4-((6-(4-hydroxyphenyl)imidazo[1,5-a]pyridin-8-yl)oxy)-2-methylpiperidin-1-yl)prop-2-en-1-one]", "values": [
      {"measurement": "IC50", "setting": "[2]", "value": "< 1", "unit": "µM"},
      {"measurement": "JAK3 (pKi)-JAK1 (pKi)", "setting": "JAK3", "value": "A (a value of 3 or above)"}
    ]},
    {"smiles": "C=CC(=O)N1CC(C(C)(C)Oc2cc(-c3ccc(O)cc3)cn3cncc23)C1", "note": "[Example 28]", "values": [
      {"measurement": "IC50", "setting": "[2]", "value": "< 1", "unit": "µM"},
      {"measurement": "JAK3 (pKi)-JAK1 (pKi)", "setting": "JAK3", "value": "A (a value of 3 or above)"}
    ]}
  ]
}
